The supplement of paper PMC10307832

Legend:
Experiment in all cases: relative viability (nuclei count vs DMSO), 5 days (fraction); higher = more cells survive
[1] = compound: C[C@@]1(C(=O)Nc2ccc(F)nc2)CCCN1c1nc(Nc2cc(C3CC3)n[nH]2)c2cccn2n1 + CC(C)C[C@H](NC(=O)[C@H](Cc1ccccc1)NC(=O)c1cnccn1)B(O)O [Bortezomib] (partner 0.002 µM)
Outline: (§1)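 Cells from lung cancer lines were seeded into 1536-well plates and, one day later, dosed by pin tool. Treatments were either a single drug or a fixed dose of an anchor drug with five library-drug doses (not always all listed) in √10 steps. After 5 days, nuclei were stained in a one-step fixation (final 0.05% Triton X-100, 1% formaldehyde, 1 ug/ml Hoechst) and counted on 4× images, and relative viability is the treated-to-vehicle nuclei ratio, as the median of duplicate plates.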

Motesanib + Crizotinib = compound: CC1(C)CNc2cc(NC(=O)c3cccnc3NCc3ccncc3)ccc21 [Motesanib] + C[C@@H](Oc1cc(-c2cnn(C3CCNCC3)c2)cnc1N)c1c(Cl)ccc(F)c1Cl [Crizotinib] (partner 1 µM)
Outline: as §1

[2] = compound: C[C@@]1(C(=O)Nc2ccc(F)nc2)CCCN1c1nc(Nc2cc(C3CC3)n[nH]2)c2cccn2n1 + O=C(CCCCCCC(=O)Nc1ccccc1)NO [Vorinostat] (partner 1 µM)
Outline: as §1

Motesanib + Palbociclib = compound: CC1(C)CNc2cc(NC(=O)c3cccnc3NCc3ccncc3)ccc21 [Motesanib] + CC(=O)c1c(C)c2cnc(Nc3ccc(N4CCNCC4)cn3)nc2n(C2CCCC2)c1=O [Palbociclib] (partner 0.5 µM)
Outline: as §1

Cell Line	relative viability ([1]; first compound 0.04 µM)	relative viability ([1]; first compound 0.1265 µM)	relative viability ([1]; first compound 0.4 µM)	relative viability ([1]; first compound 1.265 µM)	relative viability (Motesanib + Crizotinib; first compound 0.01 µM)	relative viability (Motesanib + Crizotinib; first compound 0.03162 µM)	relative viability (Motesanib + Crizotinib; first compound 0.1 µM)	relative viability (Motesanib + Crizotinib; first compound 0.3162 µM)	relative viability (Motesanib + Crizotinib; first compound 1 µM)	relative viability ([2]; first compound 0.04 µM)	relative viability ([2]; first compound 0.1265 µM)	relative viability ([2]; first compound 0.4 µM)	relative viability ([2]; first compound 1.265 µM)	relative viability (Motesanib + Palbociclib; first compound 0.01 µM)	relative viability (Motesanib + Palbociclib; first compound 0.03162 µM)	relative viability (Motesanib + Palbociclib; first compound 0.1 µM)	relative viability (Motesanib + Palbociclib; first compound 0.3162 µM)	relative viability (Motesanib + Palbociclib; first compound 1 µM)
LXF-289	1.01	0.929	0.961	1	0.822	0.823	0.82	0.842	0.867	0.815	0.701	0.73	0.792	0.659	0.6	0.563	0.656	0.585
NCI-H23	0.642	0.44	0.472	0.442	0.484	0.373		0.497	0.612	0.473	0.332	0.27	0.178	0.482	0.491	0.456	0.604	0.467
NCI-H322M	1.22	0.894	1.06	1.1	1.06	0.835	1.04	0.974	0.946	0.794	0.688	0.638	0.64	0.486	0.439	0.48	0.508	0.466
NCI-H441	0.567	0.285	0.276	0.463	0.596	0.785	1.02	0.846	0.803	0.55	0.3	0.397	0.511	0.237	0.214	0.268	0.2	0.23
NCI-H460	1.13	0.991	0.892	0.93	0.935	0.75	0.945	0.927	0.902	0.829	0.431	0.555	0.302	0.278	0.162	0.142	0.197	0.137
NCI-H520	0.621	0.446	0.501	0.483	0.665	0.792	0.697	0.662	0.725	0.668	0.668	0.685	0.489	0.209	0.215	0.235	0.234	0.225
NCI-H647	1.15	0.9	0.706	0.791	1	1.06	1.2	1.19	0.964	0.711	0.574	0.489	0.289	0.428	0.262	0.395	0.423	0.466
NCI-H650	0.699	0.762	0.605	0.46	0.774	0.685	0.874	0.71	0.522	0.42	0.195	0.334	0.257	0.32	0.3	0.356	0.319	0.341
NCI-H661	0.924	1.08	0.653	0.819		0.945	1.09	0.978	1.1	0.781	0.774	0.815	0.559	0.43	0.414	0.43	0.435	0.402
NCI-H727	0.763	0.385	0.339	0.338	0.96	0.839	0.786	0.808	0.723	1.3	0.774	0.774	0.474	0.631	0.652	0.687	0.639	0.606
NCI-H838	0.807	0.687	0.498	0.547	0.908	0.856	0.903	0.899	0.878	0.7	0.627	0.535	0.266	0.204	0.203	0.213	0.198	0.241
NCI-H1355	1.15	1.04	0.948	0.969	1.12	1.14	0.994	1.07	1.05	0.578	0.499	0.403	0.505	0.429	0.413	0.397	0.392	0.38
NCI-H1437	0.398	0.521	0.328	0.276	0.888	0.996	0.963	0.95	1.05	0.898	0.744	0.527	0.433	0.271	0.266	0.295	0.302	0.278
NCI-H1650	0.185	0.248	0.185	0.174	0.91		0.975	0.93	1.02	0.568	0.445	0.494	0.311	0.351	0.385	0.349	0.346	0.343
NCI-H1651	0.956	0.871	0.864	0.825	0.836	0.835	0.786	0.912	0.838	0.547	0.499	0.517	0.448	0.528	0.523	0.538	0.508	0.513
NCI-H1666	0.678	0.434	0.455	0.444	1.02	1.06	0.949	0.958	1.03	0.965	0.729	0.77	0.82	0.649	0.577	0.679	0.751	0.63
NCI-H1734	0.856	0.781	0.641	0.577	0.685	0.645	0.654	0.68	0.673	0.71	0.58	0.486	0.421	0.359	0.349	0.387	0.348	0.324
